# According to ChEMBL document CHEMBL3400110, “Iminopyrimidinones: a novel pharmacophore for the development of orally active renin inhibitors” (Bioorg Med Chem Lett, 2015):
# The source made the active and inactive calls. The calls are words filed in the database; no cut-off is given here.
# How the values were obtained:
# Renin = target: T1, Renin (Homo sapiens, UniProt P00797); assay: Inhibition of renin (unknown origin)
# T1 sequence (P00797 whole entry): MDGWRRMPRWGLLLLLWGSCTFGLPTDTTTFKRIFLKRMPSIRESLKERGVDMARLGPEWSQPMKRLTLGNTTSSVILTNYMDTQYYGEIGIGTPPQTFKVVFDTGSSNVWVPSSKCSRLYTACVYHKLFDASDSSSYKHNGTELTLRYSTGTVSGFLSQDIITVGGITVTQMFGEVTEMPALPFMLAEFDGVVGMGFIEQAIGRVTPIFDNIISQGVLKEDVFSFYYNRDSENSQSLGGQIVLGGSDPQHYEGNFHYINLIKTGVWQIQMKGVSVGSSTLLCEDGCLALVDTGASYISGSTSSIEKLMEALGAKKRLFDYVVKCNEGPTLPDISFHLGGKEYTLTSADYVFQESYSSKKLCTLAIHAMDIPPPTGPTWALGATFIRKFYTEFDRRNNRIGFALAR
# Homo sapiens [1] = species on record: Homo sapiens; assay: Clearance in human assessed per million cells; assay type: ADME, cell-based
# [2] = Permeability across human Caco2 cells; assay type: ADME, cell-based; settings: Caco-2, read-out: permeability
# [3] = AUC (0 to 6 hrs) in rat at 10 mg/kg, po; assay type: ADME, organism-based; set-up: time < 6 hr, dose 10 mg/kg, route oral; settings: plasma
# Cathepsin D = Cathepsin D (Homo sapiens, UniProt P07339); assay: Inhibition of CathD (unknown origin)
# Beta-secretase 1 = Beta-secretase 1 (Homo sapiens, UniProt P56817); assay: Inhibition of BACE1 (unknown origin)
# Rattus norvegicus [4] = assay: Antihypertensive activity in rat/human renin double transgenic rat model assessed as maximum reduction in mean arterial pressure at 10 mg/kg, po; assay type: functional, Artery
# clinical = settings: human, in vivo, po
# hERG (KCNH2) = hERG (KCNH2) (Homo sapiens, UniProt Q12809); assay: Inhibition of human ERG at 10 uM
# Rattus norvegicus [5] = assay: Antihypertensive activity in rat/human renin double transgenic rat model assessed as reduction in mean arterial pressure at 10 mg/kg, po after 17 hrs; assay type: functional, organism-based; set-up: dose 10 mg/kg; settings: Artery
# [6] = target: D(1A) dopamine receptor (Homo sapiens) (UniProt P21728); assay: Inhibition of human D1 receptor at 10 uM
# [7] = AUC in dog at 3 mg/kg, po; assay type: ADME, organism-based, Canis lupus familiaris; set-up: dose 3 mg/kg, route oral; settings: plasma
# [8] = AUC in cynomolgus monkey at 3 mg/kg, po; assay type: ADME, organism-based, Macaca fascicularis; set-up: dose 3 mg/kg, route oral; settings: plasma
# Beta-secretase 2 = target: T2, Beta-secretase 2 (Homo sapiens, UniProt Q9Y5Z0); assay: Inhibition of BACE2 (unknown origin)
# T2 sequence (Q9Y5Z0 whole entry): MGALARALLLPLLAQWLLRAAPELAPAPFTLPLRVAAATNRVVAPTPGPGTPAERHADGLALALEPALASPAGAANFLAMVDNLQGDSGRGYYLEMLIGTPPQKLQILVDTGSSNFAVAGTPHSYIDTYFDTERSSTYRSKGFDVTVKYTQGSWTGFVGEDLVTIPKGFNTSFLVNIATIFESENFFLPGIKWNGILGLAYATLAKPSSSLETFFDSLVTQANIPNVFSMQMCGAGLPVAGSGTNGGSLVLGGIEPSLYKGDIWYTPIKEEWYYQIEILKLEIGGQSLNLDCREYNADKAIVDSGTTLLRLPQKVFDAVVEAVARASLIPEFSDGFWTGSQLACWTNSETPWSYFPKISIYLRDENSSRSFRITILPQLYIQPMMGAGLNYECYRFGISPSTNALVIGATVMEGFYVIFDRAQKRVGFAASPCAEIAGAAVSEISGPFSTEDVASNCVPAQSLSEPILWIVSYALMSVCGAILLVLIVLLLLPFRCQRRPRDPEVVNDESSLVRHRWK
# [9] = target: Sodium-dependent dopamine transporter (Homo sapiens) (UniProt Q01959); assay: Inhibition of human dopamine transporter at 10 uM
# [10] = Oral bioavailability in cynomolgus monkey at 3 mg/kg; assay type: ADME, organism-based, Macaca fascicularis; settings: in vivo
# [11] = target: Voltage-gated inwardly rectifying potassium channel KCNH2 (Homo sapiens, UniProt Q12809); assay: Inhibition of human ERG by voltage clamp method
# Cathepsin E = target: T3, Cathepsin E (Homo sapiens, UniProt P14091); assay: Inhibition of CathE (unknown origin)
# T3 sequence (P14091 whole entry): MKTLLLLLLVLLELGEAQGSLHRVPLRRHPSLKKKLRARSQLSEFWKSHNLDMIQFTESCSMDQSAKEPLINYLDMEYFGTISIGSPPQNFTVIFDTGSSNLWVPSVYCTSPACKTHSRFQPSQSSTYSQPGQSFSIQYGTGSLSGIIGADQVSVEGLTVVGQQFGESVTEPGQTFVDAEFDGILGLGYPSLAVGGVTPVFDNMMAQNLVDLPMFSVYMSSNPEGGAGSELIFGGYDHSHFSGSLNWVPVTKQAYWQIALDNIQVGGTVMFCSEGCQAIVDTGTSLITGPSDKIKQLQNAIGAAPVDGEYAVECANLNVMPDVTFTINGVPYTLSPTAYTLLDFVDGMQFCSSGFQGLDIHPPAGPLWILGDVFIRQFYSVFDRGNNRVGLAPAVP
# Rattus norvegicus [12] = assay: Antihypertensive activity in rat/human renin double transgenic rat model assessed as reduction in mean arterial pressure at 10 mg/kg, po after 20 hrs; assay type: functional, organism-based; set-up: dose 10 mg/kg; settings: Artery
# [13] = Protein binding in human plasma; assay type: ADME, cell-free; settings: read-out: PPB (converted)
# [14] = Inhibition of pepsin (unknown origin); set-up: species or system Homo sapiens
# Homo sapiens [15] = species on record: Homo sapiens; assay: Inhibition of Na+ channel site 2 (unknown origin) at 10 uM
# [16] = target: T4, Nuclear receptor subfamily 1 group I member 2 (Homo sapiens, UniProt O75469); assay: Inhibition of PXR (unknown origin); assay type: ADME
# T4 sequence (O75469 whole entry): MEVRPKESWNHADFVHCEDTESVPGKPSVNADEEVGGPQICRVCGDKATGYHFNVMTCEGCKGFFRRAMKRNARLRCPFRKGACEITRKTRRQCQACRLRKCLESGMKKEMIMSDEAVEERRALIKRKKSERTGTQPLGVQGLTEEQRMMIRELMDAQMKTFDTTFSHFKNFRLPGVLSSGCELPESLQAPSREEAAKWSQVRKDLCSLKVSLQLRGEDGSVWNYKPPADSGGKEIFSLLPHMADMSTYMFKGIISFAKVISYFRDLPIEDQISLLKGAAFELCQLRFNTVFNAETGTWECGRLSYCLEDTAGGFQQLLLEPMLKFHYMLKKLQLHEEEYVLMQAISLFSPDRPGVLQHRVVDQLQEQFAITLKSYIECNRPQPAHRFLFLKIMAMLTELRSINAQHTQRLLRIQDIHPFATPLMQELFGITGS
# [17] = Inhibition of CYP (unknown origin); assay type: ADME; settings: human
# [18] = Oral bioavailability in dog at 3 mg/kg; assay type: ADME, organism-based, Canis lupus familiaris; settings: in vivo
# [19] = Protein binding in rat plasma; assay type: ADME, cell-free; settings: read-out: PPB (converted)
# [20] = Fraction unbound in rat plasma; assay type: ADME, cell-free
# Sequence of Beta-secretase 1 (P56817 whole entry): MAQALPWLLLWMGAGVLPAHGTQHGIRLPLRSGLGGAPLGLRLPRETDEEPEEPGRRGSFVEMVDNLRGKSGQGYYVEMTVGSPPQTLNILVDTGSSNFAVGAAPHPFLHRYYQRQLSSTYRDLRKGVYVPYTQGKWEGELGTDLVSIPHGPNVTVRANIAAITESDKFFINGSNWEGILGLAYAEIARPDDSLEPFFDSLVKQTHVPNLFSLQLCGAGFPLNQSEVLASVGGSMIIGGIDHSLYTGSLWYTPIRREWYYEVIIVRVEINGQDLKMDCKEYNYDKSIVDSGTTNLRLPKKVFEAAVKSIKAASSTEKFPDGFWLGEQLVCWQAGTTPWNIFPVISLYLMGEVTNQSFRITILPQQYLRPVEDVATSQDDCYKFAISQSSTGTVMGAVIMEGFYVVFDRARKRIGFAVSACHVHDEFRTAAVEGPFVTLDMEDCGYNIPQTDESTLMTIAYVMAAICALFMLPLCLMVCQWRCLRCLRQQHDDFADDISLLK
# Sequence of hERG (KCNH2) (Q12809 whole entry): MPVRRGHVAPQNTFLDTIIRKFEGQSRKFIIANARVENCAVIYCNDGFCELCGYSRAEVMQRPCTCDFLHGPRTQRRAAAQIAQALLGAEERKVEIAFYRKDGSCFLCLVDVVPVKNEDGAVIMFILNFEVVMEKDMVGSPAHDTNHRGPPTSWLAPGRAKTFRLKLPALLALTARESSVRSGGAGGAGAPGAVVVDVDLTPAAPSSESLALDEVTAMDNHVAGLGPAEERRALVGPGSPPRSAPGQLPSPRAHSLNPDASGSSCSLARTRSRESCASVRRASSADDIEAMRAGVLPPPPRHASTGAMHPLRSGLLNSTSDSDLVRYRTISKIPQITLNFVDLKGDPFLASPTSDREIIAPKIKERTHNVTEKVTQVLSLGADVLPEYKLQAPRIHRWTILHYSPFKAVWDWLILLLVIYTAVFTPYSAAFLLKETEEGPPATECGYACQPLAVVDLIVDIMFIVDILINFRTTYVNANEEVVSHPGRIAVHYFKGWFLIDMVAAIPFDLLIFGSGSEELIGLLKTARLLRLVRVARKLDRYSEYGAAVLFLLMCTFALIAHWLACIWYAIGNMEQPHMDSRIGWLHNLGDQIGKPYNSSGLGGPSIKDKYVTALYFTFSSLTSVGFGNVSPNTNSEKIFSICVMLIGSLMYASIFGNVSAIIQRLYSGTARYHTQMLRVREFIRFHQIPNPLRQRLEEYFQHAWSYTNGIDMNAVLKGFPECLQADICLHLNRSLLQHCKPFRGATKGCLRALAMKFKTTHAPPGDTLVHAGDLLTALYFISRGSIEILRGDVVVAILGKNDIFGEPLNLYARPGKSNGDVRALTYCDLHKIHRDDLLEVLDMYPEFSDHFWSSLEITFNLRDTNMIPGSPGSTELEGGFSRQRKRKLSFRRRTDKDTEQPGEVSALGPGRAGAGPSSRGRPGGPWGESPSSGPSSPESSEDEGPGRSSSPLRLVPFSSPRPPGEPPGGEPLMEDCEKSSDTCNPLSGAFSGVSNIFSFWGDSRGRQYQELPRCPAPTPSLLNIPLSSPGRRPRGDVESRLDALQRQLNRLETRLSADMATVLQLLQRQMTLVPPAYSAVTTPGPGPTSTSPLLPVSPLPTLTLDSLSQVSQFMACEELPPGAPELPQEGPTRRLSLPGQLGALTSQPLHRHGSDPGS
# Sequence of Cathepsin D (P07339 65-162 limits assumed): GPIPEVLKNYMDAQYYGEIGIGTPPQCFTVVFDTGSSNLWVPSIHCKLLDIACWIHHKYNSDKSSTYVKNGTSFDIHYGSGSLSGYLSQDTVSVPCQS
# Sequence of Cathepsin D (P07339 169-412 limits assumed): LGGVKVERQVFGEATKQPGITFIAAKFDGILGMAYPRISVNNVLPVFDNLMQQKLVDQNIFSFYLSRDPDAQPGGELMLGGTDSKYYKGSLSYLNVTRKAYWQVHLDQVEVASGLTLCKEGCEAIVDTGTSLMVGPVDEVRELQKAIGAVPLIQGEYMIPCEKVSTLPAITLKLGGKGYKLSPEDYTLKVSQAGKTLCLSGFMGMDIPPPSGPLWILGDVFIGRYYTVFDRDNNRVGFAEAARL
# Sequence of Sodium-dependent dopamine transporter (Homo sapiens) (Q01959 whole entry): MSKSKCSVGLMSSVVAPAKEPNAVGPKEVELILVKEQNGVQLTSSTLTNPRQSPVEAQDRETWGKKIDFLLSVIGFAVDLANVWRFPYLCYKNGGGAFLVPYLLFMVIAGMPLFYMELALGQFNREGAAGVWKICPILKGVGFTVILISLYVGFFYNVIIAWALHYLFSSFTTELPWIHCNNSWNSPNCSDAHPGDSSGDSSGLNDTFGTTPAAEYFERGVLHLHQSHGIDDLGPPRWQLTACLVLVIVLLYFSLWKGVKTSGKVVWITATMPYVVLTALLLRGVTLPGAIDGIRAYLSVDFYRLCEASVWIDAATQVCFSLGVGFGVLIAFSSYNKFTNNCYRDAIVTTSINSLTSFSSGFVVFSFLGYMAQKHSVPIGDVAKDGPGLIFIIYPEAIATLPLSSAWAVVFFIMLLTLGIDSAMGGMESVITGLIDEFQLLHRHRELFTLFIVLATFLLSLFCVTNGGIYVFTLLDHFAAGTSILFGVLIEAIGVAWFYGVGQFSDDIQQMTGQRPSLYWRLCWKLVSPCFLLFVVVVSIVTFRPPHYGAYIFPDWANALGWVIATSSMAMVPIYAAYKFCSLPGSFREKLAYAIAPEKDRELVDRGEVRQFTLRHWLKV
# Sequence of D(1A) dopamine receptor (Homo sapiens) (P21728 whole entry): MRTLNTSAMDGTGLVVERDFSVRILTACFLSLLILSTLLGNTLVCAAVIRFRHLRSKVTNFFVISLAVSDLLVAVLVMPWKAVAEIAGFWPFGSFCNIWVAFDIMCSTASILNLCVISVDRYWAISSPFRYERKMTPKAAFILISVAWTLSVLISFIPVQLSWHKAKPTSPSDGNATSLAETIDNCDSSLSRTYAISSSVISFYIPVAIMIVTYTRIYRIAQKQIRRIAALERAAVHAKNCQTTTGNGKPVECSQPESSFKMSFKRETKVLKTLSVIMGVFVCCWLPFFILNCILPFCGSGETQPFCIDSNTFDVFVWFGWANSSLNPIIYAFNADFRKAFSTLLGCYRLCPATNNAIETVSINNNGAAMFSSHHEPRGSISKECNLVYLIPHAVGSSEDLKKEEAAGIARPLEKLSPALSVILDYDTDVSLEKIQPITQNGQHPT
# Sequence of Voltage-gated inwardly rectifying potassium channel KCNH2 (Q12809 whole entry): as the sequence (Q12809 whole entry) above
smiles,measurement,setting,value
CC(C)[C@]1(C)CC(=O)N(Cc2cccc(N3C[C@H](c4ccccc4)CC3=O)c2)C(=N)N1,Ki,Renin,420 nM
CC(C)[C@]1(C)CC(=O)N(Cc2cccc(C(=O)NCc3ccccc3)c2)C(=N)N1,Ki,Renin,56 nM
same,CL,Homo sapiens [1],3.7 µL/min
same,Papp,[2],0.09 ×10⁻⁶ cm/s
same,AUC(0-t) at 6 h,[3],0.031 µM·h
same,Ki,Cathepsin D,2700 nM
same,Ki,Beta-secretase 1,> 10 µM
CN[C@H](CNC(=O)N1CCC[C@@H]([C@@H](OCCNC(=O)OC)c2cccc(Cl)c2)C1)C[C@H]1CCCOC1 [VTP-27999],IC50,Renin,0.5 nM
COCCCOc1cc(C[C@@H](C[C@H](N)[C@@H](O)C[C@H](C(=O)NCC(C)(C)C(N)=O)C(C)C)C(C)C)ccc1OC,Activity,Rattus norvegicus [4],43 mmHg
same,bioavailability,clinical,2.5%
CC(C)[C@]1(C)CC(=O)N(Cc2cccc(C(=O)N[C@@H](C)c3ccccc3)c2)C(=N)N1,Ki,Renin,2.2 nM
same,AUC(0-t) at 6 h,[3],0.405 µM·h
CC(C)[C@]1(C)CC(=O)N(Cc2cccc(N3CC(c4cccc(Cl)c4)CC3=O)c2)C(=N)N1 (stereo partly drawn),Ki,Renin,2 nM
same,inhibition at 10 µM,hERG (KCNH2),92%
CC(C)[C@]1(C)CC(=O)N(Cc2cccc(N3C[C@@H](c4ccccc4)CC3=O)c2)C(=N)N1,Ki,Renin,44 nM
same,Papp,[2],4.2 ×10⁻⁶ cm/s
same,AUC(0-t) at 6 h,[3],2.04 µM·h
C[C@@]1(c2ccc3sccc3c2)CC(=O)N(Cc2cccc(C(=O)NCc3ccccc3)c2)C(=N)N1,Ki,Renin,82 nM
same,AUC(0-t) at 6 h,[3],0.049 µM·h
same,Ki,Cathepsin D,19500 nM
same,Ki,Beta-secretase 1,3.82 µM
CC(C)[C@]1(C)CC(=O)N(Cc2cc(F)cc(N3C[C@@H](c4ccccc4)CC3=O)c2)C(=N)N1,Ki,Renin,19 nM
same,CL,Homo sapiens [1],7.6 µL/min
same,inhibition at 10 µM,hERG (KCNH2),85%
same,Papp,[2],6.7 ×10⁻⁶ cm/s
same,AUC(0-t) at 6 h,[3],2.25 µM·h
CC(C)[C@]1(C)CC(=O)N(Cc2cccc(C(=O)N[C@H](C)c3ccccc3)c2)C(=N)N1,Ki,Renin,86 nM
same,AUC(0-t) at 6 h,[3],0.173 µM·h
CC(C)[C@]1(C)CC(=O)N(Cc2ccnc(N3C[C@@H](c4ccccc4)CC3=O)c2)C(=N)N1,Ki,Renin,6 nM
same,inhibition at 10 µM,hERG (KCNH2),77%
same,AUC(0-t) at 6 h,[3],2.44 µM·h
CC(C)[C@]1(C)CC(=O)N(Cc2cc(F)cc(C(=O)N[C@@H](C)c3ccccc3)c2)C(=N)N1,Ki,Renin,0.6 nM
same,Activity,Rattus norvegicus [5],Active
same,inhibition,[6],64%
same,Activity,Rattus norvegicus [4],66 mmHg
same,AUC,[7],3 µM·h
same,AUC,[8],1 µM·h
same,Ki,Beta-secretase 2,480 nM
same,CL,Homo sapiens [1],4 µL/min
same,inhibition,[9],51%
same,bioavailability,[10],9%
same,IC50,[11],9 µM
same,Ki,Cathepsin E,1100 nM
same,Activity,Rattus norvegicus [12],Active
same,fraction unbound,[13],0.058
same,Ki,[14],> 10 µM
same,inhibition,Homo sapiens [15],79%
same,INH,[16],> 30 µM
same,AUC(0-t) at 6 h,[3],6.52 µM·h
same,INH,[17],> 30 µM
same,bioavailability,[18],38%
same,fraction unbound,[19],0.059
same,Ki,Cathepsin D,180 nM
same,fraction unbound,[20],0.059
same,Ki,Beta-secretase 1,> 10 µM
CC(C)[C@]1(C)CC(=O)N(Cc2ccnc(N3CC[C@H](c4ccccc4)C3)c2)C(=N)N1,Ki,Renin,15 nM
same,inhibition at 10 µM,hERG (KCNH2),72%
same,AUC(0-t) at 6 h,[3],0.595 µM·h
